Experimental data: US12061201B2, “Fluorescent probes for the visualization of FtsZ in gram-positive and gram-negative bacterial pathogens” (Rutgers, The State University of New Jersey, priority 2019, dated 2024)
“Also recorded” adds a separate entry of the source. Read-outs that look alike come from different tables or passages of the source.

Assays:
[1] = molecular target: T1, Streptococcus agalactiae FtsZ (SagFtsZ) (Streptococcus agalactiae, UniProt Q8E183); assay: Fluorescence anisotropy binding of BOFP to FtsZ; details: for Kd: 50 mM Tris-HCl (pH 7.6), 50 mM KCl
T1 sequence (Q8E183 1-426): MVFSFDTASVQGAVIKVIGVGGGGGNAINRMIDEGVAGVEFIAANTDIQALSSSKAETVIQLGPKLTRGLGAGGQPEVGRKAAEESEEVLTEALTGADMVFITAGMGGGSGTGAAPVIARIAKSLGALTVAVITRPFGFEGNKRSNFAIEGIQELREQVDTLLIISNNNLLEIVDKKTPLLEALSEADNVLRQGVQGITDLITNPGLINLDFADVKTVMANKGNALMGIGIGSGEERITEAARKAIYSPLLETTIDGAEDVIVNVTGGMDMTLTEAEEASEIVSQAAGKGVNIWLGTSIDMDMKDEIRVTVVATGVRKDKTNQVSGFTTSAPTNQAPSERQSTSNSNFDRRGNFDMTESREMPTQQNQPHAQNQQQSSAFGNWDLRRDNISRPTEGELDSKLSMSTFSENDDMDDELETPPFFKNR
Description: (§1) Fluorescence anisotropy assay for determining the affinities and thermodynamics associated with the binding of BOFP to FtsZ proteins. Fluorescence anisotropy experiments were performed using an AVIV model ATF105 spectrofluorometer at 15, 25, or 37° C. In these experiments, bandwidths were set to 4 nm in both the excitation and emission directions, with the excitation and emission wavelengths being set at 488 nm and 510 nm, respectively. BOFP (0.1 μM) was titrated with increasing concentrations (ranging from 0 to 12 μM) of FtsZ in 120 μL of buffer containing 50 mM Tris-HCl (pH 7.6) and 50 mM KCl. After each protein addition, the samples were equilibrated for 3 minutes, whereupon the fluorescence anisotropy was measured.
(§2) [formula] In this equation, r0 is the anisotropy of the protein-free compound, r∞ is the anisotropy of the compound in the presence of an infinite concentration of FtsZ, [C]tot is the total concentration of the compound, and [P]tot is the total concentration of protein with each addition. These analyses yielded the equilibrium dissociation constant (Kd) for each binding reaction.
(§3) The binding free energy (ΔG) at temperature T was derived from the corresponding Kd value determined at T using the following relationship:
(§4) [formula] The binding enthalpy (ΔH) and entropy (ΔS) were derived from linear fits of the ln(1/Kd) vs. 1/T plots shown in FIGS. 3f and 5e using the following relationship:
(§5) A quartz ultra-micro cell (Hellma) with a 2×5 mm aperture and a 15 mm center height was used for all measurements. The pathlengths in the excitation and emissions directions were 1 and 0.2 cm, respectively. All steady-state anisotropy experiments were conducted in at least triplicate, with the reported anisotropies reflecting the average values.

[2] = molecular target: Streptococcus pyogenes FtsZ (SpyFtsZ) (Streptococcus pyogenes, UniProt Q99YV7); assay: Fluorescence anisotropy binding of BOFP to FtsZ; details: for Kd: 50 mM Tris-HCl (pH 7.6), 50 mM KCl
Streptococcus pyogenes FtsZ (SpyFtsZ), sequence (Q99YV7 entry or part of it): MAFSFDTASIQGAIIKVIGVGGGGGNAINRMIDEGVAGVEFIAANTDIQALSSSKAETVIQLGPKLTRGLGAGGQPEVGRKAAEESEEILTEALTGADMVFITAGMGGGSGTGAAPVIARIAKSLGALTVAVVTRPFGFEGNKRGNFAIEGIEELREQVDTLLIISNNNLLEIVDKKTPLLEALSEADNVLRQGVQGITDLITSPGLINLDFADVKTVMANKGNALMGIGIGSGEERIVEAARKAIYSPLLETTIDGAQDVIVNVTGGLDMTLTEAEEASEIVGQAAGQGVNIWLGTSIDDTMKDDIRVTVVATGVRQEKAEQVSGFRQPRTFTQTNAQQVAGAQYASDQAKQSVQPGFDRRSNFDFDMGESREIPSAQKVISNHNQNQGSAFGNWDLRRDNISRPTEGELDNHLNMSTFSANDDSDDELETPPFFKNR
Description: as §1, §2, §3, §4, §5

[3] = molecular target: T2, S. aureus FtsZ (SaFtsZ) (Staphylococcus aureus, UniProt P0A031); assay: Fluorescence anisotropy binding of BOFP to FtsZ; details: 0.1 μM BOFP, 10 μM SaFtsZ, 37° C.
T2 sequence (P0A031 1-390): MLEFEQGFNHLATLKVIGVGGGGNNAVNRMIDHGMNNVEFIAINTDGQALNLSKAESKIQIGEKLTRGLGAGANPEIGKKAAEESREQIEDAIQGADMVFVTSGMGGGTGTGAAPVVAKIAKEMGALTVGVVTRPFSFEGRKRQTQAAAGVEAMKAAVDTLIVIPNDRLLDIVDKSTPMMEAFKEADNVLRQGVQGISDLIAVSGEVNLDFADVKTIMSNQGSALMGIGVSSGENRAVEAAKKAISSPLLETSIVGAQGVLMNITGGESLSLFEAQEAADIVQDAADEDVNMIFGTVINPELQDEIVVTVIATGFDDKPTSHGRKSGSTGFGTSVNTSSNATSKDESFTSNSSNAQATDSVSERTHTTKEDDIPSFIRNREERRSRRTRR

[4] = system: FtsZ in S. pneumoniae ATCC 49619 cells; assay: Fluorescence microscopy FtsZ visualization in live cells; assay type: cell-based; details: 1 μg/mL (1.3 μM) BOFP, 5 minutes
Description: (§6) Fluorescence microscopy assay for visualizing FtsZ and monitoring cell division in live Gram-positive and Gram-negative bacterial cells using BOFP. All fluorescence microscopy experiments were conducted using an Olympus BX50 microscope equipped with an X-cite Exacte 200W mercury lamp, a 100× Olympus UPLSAPO oil immersion objective (1.40 aperture), and a Chroma ET-EGFP (FITC/Cy2) filter. Images were captured using a QImaging Retiga R3 charge-coupled device (CCD) camera and the Ocular-Version 2.0 software package (QImaging).
(§7) For visualizing FtsZ in Gram-positive bacteria using BOFP, the bacterial cells were grown to log-phase in media suitable for each individual pathogen. Specifically, S. aureus NRS705 was grown in tryptic soy broth (TSB), E. faecalis ATCC 29212 and E. faecium ATCC 19434 were grown in lactobacilli MRS broth, S. agalactiae ATCC 12386 and S. pneumoniae ATCC 49619 were grown in TH broth, and S. pyogenes ATCC 19615 was grown in CAMH broth supplemented with 3% (v/v) LHB. For each Gram-positive bacterial strain, a total of 1 mL of cell culture was centrifuged at 15,000×g for 1 minute and washed 2-3 times with 1 mL of PBS. After the final wash, the pelleted cells were resuspended in 500 μL of PBS containing 1 μg/mL of BOFP and incubated in the dark for 5 minutes at room temperature. The cells were then centrifuged at 15,000×g for 1 minute, washed twice with 1 mL of PBS, and subsequently resuspended in 200 μL of PBS. 8 μL of this final cell suspension was then spread on a 0.25 mm layer of 1.5% high-resolution agarose (Sigma) in PBS, which was mounted on a standard 75×25×1 mm microscope slide (Azer Scientific) using a 1.7×2.8×0.025 cm Gene Frame (ThermoFisher). A 24×40 mm cover slip (Azer Scientific) was then applied to the agarose pad to prepare the slide for microscopic visualization.

[5] = system: FtsZ in E. faecium ATCC 19434 cells; assay: as above; assay type: cell-based; details: 1 μg/mL (1.3 μM) BOFP, 5 minutes
Description: as §6, §7

[6] = molecular target: T3, FtsZ in E. faecalis ATCC 29212 cells (Enterococcus faecalis, UniProt O08439); assay: as above; assay type: cell-based; details: 1 μg/mL (1.3 μM) BOFP, 5 minutes
T3 construct: endogenous in cells; host or cells: E. faecalis ATCC 29212
T3 sequence (O08439 whole entry): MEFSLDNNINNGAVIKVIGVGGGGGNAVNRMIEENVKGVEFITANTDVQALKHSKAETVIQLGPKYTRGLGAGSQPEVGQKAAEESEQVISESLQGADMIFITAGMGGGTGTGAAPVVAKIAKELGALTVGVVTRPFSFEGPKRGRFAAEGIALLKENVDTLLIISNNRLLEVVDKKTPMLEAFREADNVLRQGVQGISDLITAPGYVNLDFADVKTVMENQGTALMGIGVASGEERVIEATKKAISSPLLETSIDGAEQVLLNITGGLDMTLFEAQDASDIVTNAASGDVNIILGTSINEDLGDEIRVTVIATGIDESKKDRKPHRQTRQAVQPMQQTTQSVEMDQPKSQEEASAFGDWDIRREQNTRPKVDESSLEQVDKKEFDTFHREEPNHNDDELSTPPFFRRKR
Description: as §6, §7

[7] = molecular target: T4, FtsZ in S. aureus NRS705 cells (Staphylococcus aureus, UniProt P0A031); assay: as above; assay type: cell-based; details: 1 μg/mL (1.3 μM) BOFP, 5 minutes
T4 construct: endogenous in cells; host or cells: S. aureus NRS705
T4 sequence (P0A031 1-390): T2 sequence (P0A031 1-390)
Description: as §6, §7

[8] = linear fit of ln(1/Kd) vs. 1/T, Eq. 3

In the case of `CC1=CC(C)=[N+]2C1=Cc1ccc(CCC(=O)OCC(Oc3ccc(F)c(C(N)=O)c3F)c3nc(-c4ccc(C(F)(F)F)cc4)c(Br)o3)n1[B-]2(F)F` (stereo not shown) [BOFP, 2-(5-bromo-4-(4-(trifluoromethyl)phenyl)-oxazol-2-yl)-2-(3-carbamoyl-2,4-difluorophenoxy)ethyl 3-(5,5-difluoro-7,9-dimethyl-5H-5λ^4,6λ^4-dipyrrolo[1,2-c:2′,1′-f][1,3,2]diazaborinin-3-yl)propanoate], the “ΔH contribution to the observed ΔG of binding” value [1] is reported as greater than 50%, the Kd ([1]; 15° C., read-out: Kd −15° C.) is reported as 620 ± 50 nM and the Kd ([1]; 25° C., read-out: Kd −25° C.) is reported as 1020 ± 90 nM. For the same compound, the Kd ([1]; 37° C., read-out: Kd −37° C.) was 1310 ± 40 nM, the ΔH [1, 8] was -6.6 ± 0.6 kcal/mol and the ΔS [1, 8] was “+5.4 ± 2.0 cal/mol · K”. For the same compound, the “ΔH contribution to the observed ΔG of binding” value [2] was greater than 50%, the Kd ([2]; 15° C., read-out: Kd −15° C.) was 910 ± 60 nM and the Kd ([2]; 25° C., read-out: Kd −25° C.) was 1310 ± 80 nM. The Kd ([2]; 37° C., read-out: Kd −37° C.) was 1550 ± 80 nM, the ΔG ([2]; T = 310K (37° C.), Eq. 2) was -8.2 ± 0.1 kcal/mol and the ΔH [2, 8] was -4.3 ± 1.1 kcal/mol. For the same compound, the ΔS [2, 8] was “+12.8 ± 3.7 cal/mol · K”, the “effect of both GMPCPP and MgCl2 on the anisotropy of SaFtsZ-bound BOFP” value ([3]; GMPCPP 0.1 mM and MgCl2 10 mM) was “modest increase in the anisotropy” and the “effect of GMPCPP alone or MgCl2 alone on the anisotropy of SaFtsZ-bound BOFP” value ([3]; GMPCPP 0.1 mM or MgCl2 10 mM) was “neither GMPCPP alone (at 0.1 mM) nor MgCl2 alone (at 10 mM) has a significant effect; also recorded: independent of either GTP or magnesium”. The “FtsZ labeling (fluorescence staining) in live cells” value (“FtsZ labeling” for short) [4] was “bright bands of fluorescence staining were clearly visible at midcell”, the “FtsZ labeling” value [5] was “bright bands of fluorescence staining were clearly visible at midcell” and the “FtsZ labeling” value [6] was “bright bands of fluorescence staining were clearly visible at midcell”. For the same compound, the “FtsZ labeling” value [7] was “bright bands of fluorescence staining were clearly visible at midcell”.
